From paper PMC6345774, “Kinetic and thermodynamic effects of phosphorylation on p53 binding to MDM2” (Scientific Reports, 2019)

B1: Ac-EeFdDLWKLLPEN-NH2 (P53-E18-D20) (peptide)
peptide: Ac-EEFDDLWKLLPEN-NH2
notes: also called double phosphomimetic mutant

Key:
[1] = biological target: T1, human MDM2 (residues 2–125) (Homo sapiens, UniProt Q00987); test: Stopped-flow fluorescence kinetics of p53-peptide binding to MDM2; conditions: stopped-flow Trp fluorescence, 15 °C, 50 mM Tris-HCl pH 8.0, 250 mM NaCl, 0.5 mM TCEP, peptide 0.125 μM, ± fitting error; for kon: MDM2 1–3 μM, pseudo-first order, slope, read-out: kon 10^6; for koff: y-axis intercept of pseudo-first-order plot
T1 construct: human MDM2 (residues 2–125); made in house; host or cells: E. coli BL21 (DE3)
T1 sequence (Q00987 2-125): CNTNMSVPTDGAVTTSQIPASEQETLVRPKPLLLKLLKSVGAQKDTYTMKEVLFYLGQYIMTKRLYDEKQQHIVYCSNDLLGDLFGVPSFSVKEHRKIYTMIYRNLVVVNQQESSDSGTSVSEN
Protocol: (§1) Expression and purification of human MDM2 (residues 2–125) was carried out as described[23] in BL21 (DE3) cells. […] Protein concentration was determined from the absorbance of its seven Tyr residues.
The kinetics of the MDM2/p53-peptide interaction was measured at 15 °C using an Applied Photophysics stopped-flow fluorimeter in the same buffer as that used in the equilibrium fluorescence experiments. The experimental procedure has been described previously. Association kinetics was measured under pseudo-first order conditions, by keeping the MDM2 concentration in excess of that of the peptide. […] Excitation wavelength was 280 nm with a cut-off filter of 315 nm on the emission side. The slit widths were 10 nm for excitation and emission.
At each MDM2 concentration a minimum of six traces were acquired; and the fitting in all cases for all peptides was carried out with the averaging of at least four traces. The averaged trace was always fitted to a single exponential function, which yielded, kobs. Fitting to a single exponential curve was carried out by using Kaleidagraph (Synergy Software); reported errors in kobs are from the exponential fitting. The dissociation (koff) and association (kon) rate constants were obtained from the straight line: kobs=kon×[MDM2]+koff.
Errors in both rates were from the linear fitting; the errors were always larger for koff due to the extrapolation to the y-axis intercept.

[2] = biological target: T1, human MDM2 (residues 2–125); test: Equilibrium fluorescence titration of p53-peptides and MDM2; assay type: binding; conditions: fluorescence at 315 nm, excitation 280 nm; MDM2 4 μM, peptide 0–10 μM; 15 °C, pH 8.0 Tris-HCl, 250 mM NaCl, 0.5 mM TCEP; overnight equilibration; titration repeated twice; read-out: Kd from fluorescence titrations
Protocol: as §1

[3] = Far-UV CD of isolated peptides in aqueous solution (helicity); assay type: physicochemical; conditions: 5 °C, 50 mM phosphate pH 6.8; for molar ellipticity at 222 nm, [Θ]222: far-UV CD; for % Helix in water ([Θ]222): from molar ellipticity at 222 nm assuming 100% helix = −31500 deg cm^2 dmol^−1
Protocol: Spectra were acquired on a Jasco J815 spectropolarimeter (Jasco, Japan) interfaced with a Peltier unit. The instrument was periodically calibrated with (+) 10-camphorsulphonic acid. Far-UV measurements (in aqueous or TFE solutions) were performed in 0.1-cm-pathlength quartz cells (Hellma), with a response time of 2 s, a band width of 1 nm, data were collected every 0.2 nm, and a scan velocity of 50 nm/min (or 20 nm/min). […] In all peptides, two concentrations (10 μM and 70 μM) in aqueous solutions (50 mM sodium phosphate buffer, pH 6.8 […]) were used to determine whether either the shapes or the intensities of the spectra were concentration-dependent. […] In all cases (aqueous solution or TFE titrations), the corresponding blank solutions (containing only buffer, or buffer and the corresponding amount of TFE) were subtracted from the spectra.
(§2) For the TFE titrations, a peptide concentration of 40 μM was used. The samples were prepared the day before and left overnight at 5 °C to reach equilibrium. The experiments in aqueous solution were acquired at 5 °C, in 50 mM sodium phosphate buffer, pH 6.8. Raw ellipticity was converted to molar ellipiticity, [Θ], from which the percentage of helical populations was determined. Co-solvent concentrations were indicated in percentage of volume. […] Fitting of the titration curves, obtained by observation of the molar ellipticity at 222 nm as the TFE concentration was increased, was carried out with Kaleidagraph (Synergy software).

[4] = TFE titrations monitored by CD (helical population); assay type: physicochemical; conditions: 5 °C, 50 mM phosphate pH 6.8, peptide 40 μM; for [TFE]1/2 (midpoint of TFE titration) / m (m-value of TFE titration): CD at 222 nm, two-state fit, ± fitting error; for % Helix in water (from ΔG in TFE titrations): from ΔG = [TFE]1/2 × m, for 1% values the error was 10%
Protocol: Unlike the above programs, which make assumptions about how the ellipticity signal relates to secondary structure content, a TFE titration allows the determination of helical content derived from the free-energy change for the equilibrium between folded (in TFE) and unfolded peptide, without any such assumptions.
as §2

[5] = biological target: T1, human MDM2 (residues 2–125); test: Isothermal titration calorimetry of p53-peptide binding to MDM2; conditions: ITC, 15 °C, 50 mM Tris-HCl pH 8.0, 250 mM NaCl, 0.5 mM TCEP; for Kd / ΔH of binding: peptide titrated into MDM2; for Kd: read-out: Log KA (converted); for ΔH of binding: repeated twice
Protocol: Protein concentration was determined from the absorbance of its seven Tyr residues.
Peptide binding to MDM2 was measured by using an Auto-iTC200 (Malvern Instruments, Malvern UK), as described[24],[37]. Data acquisition was carried out with a reference power of 10 µcal/s, initial delay of 60 s, spacing between injections of 150 s. In a typical ITC experiment, the p53 peptide was loaded into a 40 μl syringe and the protein was placed into the sample cell. The sequence of injections consisted of one 0.5 μl injection followed by 19 injections of 2 μl each. Control experiments loading peptide into buffer solution were also carried out for each peptide. Experiments were performed with freshly prepared protein solutions, at 15 °C in the same buffer used in fluorescence experiments. ITC experiments were performed at 15 °C rather than 25 °C to avoid aggregation of MDM2.
Each peak was integrated using NITPIC software. The areas of the peaks are related to the heat exchanged upon binding and/or dilution. This heat was corrected of the heat of dilution (i.e., the average heat of the injections after the equilibrium has reached the saturation). Titration with each peptide was repeated twice.

[6] = biological target: T2, human MDM2 (residues 2–125) (human, UniProt Q00987 2-125); test: ITC; p53 peptide in the syringe titrated into MDM2 in the cell; Auto-iTC200; 15 °C; 50 mM Tris-HCl pH 8.0, 250 mM NaCl, 0.5 mM TCEP; conditions: both partners purified
T2 construct: MDM2 (murine double minute 2), human, N-terminal domain, residues 2-125; no tag is named; also called N-terminal domain of MDM2
T2 sequence (Q00987 2-125): as above

[7] = biological target: T2, human MDM2 (residues 2–125); test: other fluorescence titration; peptide 0–10 μM added to 4 μM MDM2; fluorescence at 315 nm after excitation at 280 nm; 15 °C; 50 mM Tris-HCl pH 8.0, 250 mM NaCl, 0.5 mM TCEP; samples left overnight at 5 °C; conditions: both partners purified
[8] = biological target: T2, human MDM2 (residues 2–125); test: stopped-flow fluorescence; pseudo-first order, peptide 0.125 μM final, MDM2 in excess (typically 1 μM to 3 μM); Trp23 fluorescence, excitation 280 nm, 315 nm cut-off; 15 °C; 50 mM Tris-HCl pH 8.0, 250 mM NaCl, 0.5 mM TCEP; Kd as koff/kon assuming a two-state reaction; conditions: both partners purified

| Molecule | kon [1] [M⁻¹ s⁻¹] | koff [1] [s⁻¹] | Kd [2] [µM] | molar ellipticity at 222 nm, [Θ]222 [3] [deg cm^2 dmol^−1] | % Helix in water ([Θ]222) [3] [%] | [TFE]1/2 (midpoint of TFE titration) [4] | m (m-value of TFE titration) [4] | % Helix in water (from ΔG in TFE titrations) [4] [%] | TΔS of binding [5] [kcal/mol] | Kd [5] [µM] | ΔH of binding [5] [kcal/mol] | Kd [6] [µM] | Log KA [6] | dH [6] [kcal/mol] | Kd [7] [µM] | Kd [8] [µM] |
| --- | --- | --- | --- | --- | --- | --- | --- | --- | --- | --- | --- | --- | --- | --- | --- | --- |
| CC(=O)N[C@@H](CCC(=O)O)C(=O)N[C@H](C(=O)N[C@@H](Cc1ccccc1)C(=O)N[C@@H](CCC(=O)O)C(=O)N[C@@H](CC(=O)O)C(=O)N[C@@H](CC(C)C)C(=O)N[C@@H](Cc1c[nH]c2ccccc12)C(=O)N[C@@H](CCCCN)C(=O)N[C@@H](CC(C)C)C(=O)N[C@@H](CC(C)C)C(=O)N1CCC[C@H]1C(=O)N[C@@H](CCC(=O)O)C(=O)N[C@@H](CC(N)=O)C(N)=O)[C@@H](C)O [P53-E20] | 9e+06 ± 2e+06 | 8 ± 5 | 0.7 ± 0.1 | −2911 | 9.2 | 25 ± 2 % (vol:vol) | 231 ± 141 cal mol^−1(%)^−1 | 1 | – | – | – | – | – | – | – | – |
| CC(=O)N[C@@H](CCC(=O)O)C(=O)N[C@@H](CCC(=O)O)C(=O)N[C@@H](Cc1ccccc1)C(=O)N[C@@H](CO)C(=O)N[C@@H](CC(=O)O)C(=O)N[C@@H](CC(C)C)C(=O)N[C@@H](Cc1c[nH]c2ccccc12)C(=O)N[C@@H](CCCCN)C(=O)N[C@@H](CC(C)C)C(=O)N[C@@H](CC(C)C)C(=O)N1CCC[C@H]1C(=O)N[C@@H](CCC(=O)O)C(=O)N[C@@H](CC(N)=O)C(N)=O [P53-E18] | 3.8e+06 ± 700000 | 16 ± 2 | – | −2380 | 7.5 | 14 ± 5 % (vol:vol) | 103 ± 42 cal mol^−1(%)^−1 | 7 ± 1 | -0.26 | 7.08 | -7.02 | – | – | – | – | – |
| Ac-EEFEDLWKLLPEN-NH2 [P53-E18-E20] | 2.7e+06 ± 900000 | 17 ± 2 | – | −2757 | 8.7 | 24.5 ± 0.9 % (vol:vol) | 420 ± 390 cal mol^−1(%)^−1 | 1 | -2.16 | 5.01 | -9.12 | – | – | – | – | – |
| Ac-ETFDDLWKLLPEN-NH2 [Ac-ETFdDLWKLLPEN-NH2 (P53-D20)] | – | – | – | – | – | – | – | – | – | – | – | 5.7 | 5.24 | -10.2 | 1.5 ± 0.4 | – |
| B1 | – | – | – | – | – | – | – | – | – | – | – | 20.4 | 4.69 | -8.8 | 8.3 ± 4.9 | 4 ± 3 |
| Ac-ETFEDLWKLLPEN-NH2 [Ac-ETFeDLWKLLPEN-NH2 (P53-E20)] | – | – | – | – | – | – | – | – | – | – | – | – | – | – | – | 0.9 ± 0.6 |
| Ac-EEFEDLWKLLPEN-NH2 [Ac-EeFeDLWKLLPEN-NH2 (P53-E18-E20)] | – | – | – | – | – | – | – | – | – | – | – | 5 | 5.3 | -9.12 | – | 6 ± 2 |
| Ac-EEFSDLWKLLPEN-NH2 [Ac-EeFSDLWKLLPEN-NH2 (P53-E18)] | – | – | – | – | – | – | – | – | – | – | – | 7.1 | 5.15 | -7.02 | 2.3 ± 0.6 | 4.2 ± 0.9 |
